≈ marks a conversion by molar mass, not a printed value.
Tests used:
[1] = tested on: Mycobacterium tuberculosis; assay: Antitubercular activity against Mycobacterium tuberculosis H37Rv after 5 days by microplate Alamar Blue assay; type: functional; conditions: 120 h
[2] = Selectivity index, ratio of IC50 for mouse RAW264.7 cells to MIC for Mycobacterium tuberculosis H37Rv; type: toxicity; conditions: read-out: Selectivity Index
[3] = tested on: RAW264.7; assay: Cytotoxicity against mouse RAW264.7 cells after 72 hrs by MTT assay; type: cell-based; conditions: RAW264.7, 72 h
[4] = Cytotoxicity against mouse RAW264.7 cells at 50 uM after 72 hrs by MTT assay; type: cell-based; conditions: read-out: INH

| Compound | MIC99 [1] [µg/mL] | also measured |
| --- | --- | --- |
| Cc1cccc(N2CCN(c3nc4ccccc4c4ccccc34)CC2)c1 | 6.25 (≈ 17.7 µM) |  |
| O=[N+]([O-])c1ccc(N2CCN(c3nc4ccccc4c4ccccc34)CC2)cc1 | 1.56 (≈ 4.06 µM) | selectivity ratio [2]: > 25; IC50 [3]: > 40 µg/mL; cytotoxicity at 72 h, 50 µM [4]: 21.4% |
| c1ccc(CCN2CCN(c3nc4ccccc4c4ccccc34)CC2)cc1 | 6.25 (≈ 17 µM) |  |
| Clc1ccc(N2CCN(c3nc4ccccc4c4ccccc34)CC2)cc1 | 50 (≈ 134 µM) |  |
| c1ccc2c(c1)nc(N1CCNCC1)c1ccccc12 | 25 (≈ 94.9 µM) |  |
| Clc1ccccc1N1CCN(c2nc3ccccc3c3ccccc23)CC1 | 6.25 (≈ 16.7 µM) |  |
| COc1cccc(N2CCN(c3nc4ccccc4c4ccccc34)CC2)c1 | 12.5 (≈ 33.8 µM) |  |
| N#Cc1ccccc1N1CCN(c2nc3ccccc3c3ccccc23)CC1 | 50 (≈ 137 µM) |  |
| c1ccc(N2CCN(c3nc4ccccc4c4ccccc34)CC2)nc1 | 1.56 (≈ 4.58 µM) | selectivity ratio [2]: > 25; IC50 [3]: > 40 µg/mL; cytotoxicity at 72 h, 50 µM [4]: 16.4% |
| c1ccc(C(c2ccccc2)N2CCN(c3nc4ccccc4c4ccccc34)CC2)cc1 | 3.12 (≈ 7.27 µM) |  |
| CO[C@H]1/C=C/O[C@@]2(C)Oc3c(C)c(O)c4c(O)c(c(/C=N/N5CCN(C)CC5)c(O)c4c3C2=O)NC(=O)/C(C)=C\C=C\[C@H](C)[C@H](O)[C@@H](C)[C@@H](O)[C@@H](C)[C@H](OC(C)=O)[C@@H]1C [RIFAMPIN] | 0.02 (≈ 0.0243 µM) |  |
| CCN1CCN(c2nc3ccccc3c3ccccc23)CC1 | 6.25 (≈ 21.4 µM) |  |
| COc1ccc2cc(/C=N/Nc3ccnc4cc(OC)ccc34)ccc2c1 |  | MIC [1]: 0.22 µg/mL (≈ 0.616 µM) |
| C(=C\c1ccccc1)/CN1CCN(c2nc3ccccc3c3ccccc23)CC1 | 25 (≈ 65.9 µM) |  |
| C=Cc1ccc(CN2CCN(c3nc4ccccc4c4ccccc34)CC2)cc1 | 25 (≈ 65.9 µM) |  |
| O=C(O)c1cn(C2CC2)c2cc(N3CCN(C(=O)CN4CCN(c5nc6ccccc6c6ccccc56)CC4)CC3)c(F)cc2c1=O | 12.5 (≈ 19.7 µM) |  |
| c1cnc(N2CCN(c3nc4ccccc4c4ccccc34)CC2)nc1 | 1.56 (≈ 4.57 µM) | selectivity ratio [2]: > 25; IC50 [3]: > 40 µg/mL; cytotoxicity at 72 h, 50 µM [4]: 18.2% |
| CN1CCN(c2nc3ccccc3c3ccccc23)CC1 | 6.25 (≈ 22.5 µM) |  |
| Oc1cccc(N2CCN(c3nc4ccccc4c4ccccc34)CC2)c1 | 3.12 (≈ 8.79 µM) |  |
| COc1ccc2nc(C)cc(SCc3ccc(C(C)(C)C)cc3)c2c1 |  | MIC [1]: 0.01 µg/mL (≈ 0.0284 µM) |
| NNC(=O)c1ccncc1 [ISONIAZID] | 0.36 (≈ 2.63 µM) |  |

— ChEMBL document CHEMBL3112471, “Synthesis and evaluation of anti-tubercular activity of 6-(4-substitutedpiperazin-1-yl) phenanthridine analogues” (Eur J Med Chem, 2014)
